Measured values: US11292821B2, “Peptides and combination of peptides for use in immunotherapy against lung cancer, including NSCLC, SCLC and other cancers” (Immatics Biotechnologies GmbH, priority 2017, dated 2022)

Legend:
CD8+ T cells = assay: In vitro T-cell priming assay with aAPCs (in vitro immunogenicity for MHC class I presented peptides); format: cell-based, human; details: in vitro immunogenicity
HLA-A*02 = HLA-A*02 (Homo sapiens, UniProt P04439, D140Y/D185E/D98H/E176V/E277Q/G131W/G231S/I119V/I121R/I166T/I218V/N151K/N90K/P208A/P217A/Q86G/Q94H/R138H/R169H); assay: MHC binding assay (UV-ligand exchange, β2m ELISA)
HLA-A*03 = HLA-A*03 (Homo sapiens, UniProt P04439); assay: MHC binding assay (UV-ligand exchange, β2m ELISA)
HLA-B*08 = assay: MHC binding assay (UV-ligand exchange, β2m ELISA); parameters: species or system human

| Substance | Peptide exchange (peptide exchange yield, MHC class I binding score) (HLA-A*03) | Peptide exchange (peptide exchange yield, MHC class I binding score) (HLA-B*08) | Wells positive [%] (CD8+ T cells; HLA B*08) | also measured |
| --- | --- | --- | --- | --- |
| 133 (MTLPVDAVISV; listed as Homo sapiens) [compound 133] | – | – | – | Wells positive [%] (CD8+ T cells; HLA A*02): “+” (<20% = +); Peptide exchange (peptide exchange yield, MHC class I binding score) (HLA-A*02): “++++” (>75% = ++++) |
| 202 (KLAELEGALQK; listed as Homo sapiens) [compound 202] | “++++” (>75% = ++++) | – | – | – |
| 203 (KVKDTPGLGK; listed as Homo sapiens) [compound 203] | “++++” (>75% = ++++) | – | – | – |
| 204 (AVFDKFIRY; listed as Homo sapiens) [compound 204] | “++++” (>75% = ++++) | – | – | – |
| 205 (SLDGAARPK; listed as Homo sapiens) [compound 205] | “++++” (>75% = ++++) | – | – | Wells positive [%] (CD8+ T cells; HLA A*03): “++” (20%-49% = ++) |
| 206 (KLIDLSQVMY; listed as Homo sapiens) [compound 206] | “++++” (>75% = ++++) | – | – | – |
| 207 (RSFNGLLTMY; listed as Homo sapiens) [compound 207] | “++++” (>75% = ++++) | – | – | – |
| 208 (GLASRILDAK; listed as Homo sapiens) [compound 208] | “++++” (>75% = ++++) | – | – | Wells positive [%] (CD8+ T cells; HLA A*03): “+” (<20% = +) |
| 209 (RTQIPMSEK; listed as Homo sapiens) [compound 209] | “++++” (>75% = ++++) | – | – | Wells positive [%] (CD8+ T cells; HLA A*03): “+” (<20% = +) |
| 210 (ATSGVPVYK; listed as Homo sapiens) [compound 210] | “++++” (>75% = ++++) | – | – | Wells positive [%] (CD8+ T cells; HLA A*03): “++++” (>=70% = ++++) |
| 211 (TVNPVAIHK; listed as Homo sapiens) [compound 211] | “++++” (>75% = ++++) | – | – | – |
| 212 (KAYEQVMHY; listed as Homo sapiens) [compound 212] | “++++” (>75% = ++++) | – | – | – |
| 214 (RTMSEAALVRK; listed as Homo sapiens) [compound 214] | “++++” (>75% = ++++) | – | – | Wells positive [%] (CD8+ T cells; HLA A*03): “+” (<20% = +) |
| 215 (MMFSGPQILKL; listed as Homo sapiens) [compound 215] | “++++” (>75% = ++++) | – | – | – |
| 216 (KLYAWELAF; listed as Homo sapiens) [compound 216] | “+++” (>50 = +++) | – | – | – |
| 217 (RILNQILYY; listed as Homo sapiens) [compound 217] | “++++” (>75% = ++++) | – | – | – |

| Substance | Peptide exchange (peptide exchange yield, MHC class I binding score) (HLA-A*03) | Peptide exchange (peptide exchange yield, MHC class I binding score) (HLA-B*08) | Wells positive [%] (CD8+ T cells; HLA B*08) | also measured |
| --- | --- | --- | --- | --- |
| 218 (KTLVAELLILK; listed as Homo sapiens) [compound 218] | “+++” (>50 = +++) | – | – | Wells positive [%] (CD8+ T cells; HLA A*03): “+” (<20% = +) |
| 219 (RLRSSLVFK; listed as Homo sapiens) [compound 219] | “++++” (>75% = ++++) | – | – | – |
| 296 (MPMQDIKM; listed as Homo sapiens) [compound 296] | – | “++++” (>75% = ++++) | – | – |
| 297 (RAQLKLVAL; listed as Homo sapiens) [compound 297] | – | “++++” (>75% = ++++) | “+” (<20% = +) | – |
| 298 (FNKRKPLSL; listed as Homo sapiens) [compound 298] | – | “+++” (>50 = +++) | “+” (<20% = +) | – |
| 299 (MAQFKEISL; listed as Homo sapiens) [compound 299] | – | “++++” (>75% = ++++) | “++++” (>=70% = ++++) | – |
| 300 (VASPKHCVL; listed as Homo sapiens) [compound 300] | – | “+++” (>50 = +++) | “+” (<20% = +) | – |
| 301 (YMHKLLVL; listed as Homo sapiens) [compound 301] | – | “++++” (>75% = ++++) | – | – |
| 302 (HLLQKQTSI; listed as Homo sapiens) [compound 302] | – | “+++” (>50 = +++) | – | – |
| 303 (LPFPKFTV; listed as Homo sapiens) [compound 303] | – | “++++” (>75% = ++++) | “++” (20%-49% = ++) | – |
| 304 (ELKKLYCQI; listed as Homo sapiens) [compound 304] | – | “++++” (>75% = ++++) | – | – |
| 305 (ALKLRVAVL; listed as Homo sapiens) [compound 305] | – | “++++” (>75% = ++++) | “+” (<20% = +) | – |
| 306 (ILKVKVGL; listed as Homo sapiens) [compound 306] | – | “++++” (>75% = ++++) | “+” (<20% = +) | – |
| 307 (ILLPRTVSL; listed as Homo sapiens) [compound 307] | – | “++++” (>75% = ++++) | “+” (<20% = +) | – |
| 392 (SLFKDQMEL; listed as Homo sapiens) [compound 392] | – | – | – | Wells positive [%] (CD8+ T cells; HLA A*02): “+” (<20% = +); Peptide exchange (peptide exchange yield, MHC class I binding score) (HLA-A*02): “++++” (>75% = ++++) |
| 393 (ILLPYLQTL; listed as Homo sapiens) [compound 393] | – | – | – | Wells positive [%] (CD8+ T cells; HLA A*02): “+” (<20% = +); Peptide exchange (peptide exchange yield, MHC class I binding score) (HLA-A*02): “++++” (>75% = ++++) |

Now from value to substance, other results behind:

| Peptide exchange (peptide exchange yield, MHC class I binding score) (HLA-A*03) | Peptide exchange (peptide exchange yield, MHC class I binding score) (HLA-B*08) | Substance | Wells positive [%] (CD8+ T cells; HLA B*08) | also measured |
| --- | --- | --- | --- | --- |
| – | “++++” (>75% = ++++) | 308 (MLKQKVEEL; listed as Homo sapiens) [compound 308] | “+” (<20% = +) | – |
| – | “+++” (>50 = +++) | 309 (DAIQRKYSC; listed as Homo sapiens) [compound 309] | – | – |
| – | “++++” (>75% = ++++) | 310 (LPPKKFVL; listed as Homo sapiens) [compound 310] | – | – |
| – | “++++” (>75% = ++++) | 311 (EIRIRVVQM; listed as Homo sapiens) [compound 311] | “+” (<20% = +) | – |
| – | “++++” (>75% = ++++) | 312 (EAMLRNKEL; listed as Homo sapiens) [compound 312] | “+” (<20% = +) | – |
| – | “++++” (>75% = ++++) | 313 (ELKKKEYEEL; listed as Homo sapiens) [compound 313] | “+” (<20% = +) | – |
| – | “++++” (>75% = ++++) | 314 (AIISRLVAL; listed as Homo sapiens) [compound 314] | “++” (20%-49% = ++) | – |
| – | “++++” (>75% = ++++) | 315 (DIYQRALNL; listed as Homo sapiens) [compound 315] | “+” (<20% = +) | – |
| – | “+++” (>50 = +++) | 316 (VIKEKALTL; listed as Homo sapiens) [compound 316] | “+” (<20% = +) | – |
| – | “++++” (>75% = ++++) | 317 (LVKVKVLL; listed as Homo sapiens) [compound 317] | – | – |
| – | “++++” (>75% = ++++) | 318 (EAAIRSVEL; listed as Homo sapiens) [compound 318] | “++” (20%-49% = ++) | – |
| “++++” (>75% = ++++) | – | 453 (AINTSIKNK; listed as Homo sapiens) [compound 453] | – | – |
| “++++” (>75% = ++++) | – | 454 (KVYTPSISK; listed as Homo sapiens) [compound 454] | – | – |
| “++++” (>75% = ++++) | – | 455 (RIADIFVKK; listed as Homo sapiens) [compound 455] | – | – |
| “++++” (>75% = ++++) | – | 456 (SMFTAILKK; listed as Homo sapiens) [compound 456] | – | – |
| “++++” (>75% = ++++) | – | 457 (SINKPTSER; listed as Homo sapiens) [compound 457] | – | – |
| “++++” (>75% = ++++) | – | 458 (GIADFVLKY; listed as Homo sapiens) [compound 458] | – | – |
